# ChEMBL document CHEMBL1201862, “PubChem BioAssay data set” (2004)
# Calls of active or inactive are those of the source.
# How the values were obtained:
# [1] = target: T1, Mannose-6-phosphate isomerase (Homo sapiens, UniProt P34949); assay: MPI inhibition at elevated mannose 6-phosphate – biochemical, fluorescence intensity, high mannose 6-phosphate, primary screen (AID 1220)
# T1 sequence (P34949 whole entry): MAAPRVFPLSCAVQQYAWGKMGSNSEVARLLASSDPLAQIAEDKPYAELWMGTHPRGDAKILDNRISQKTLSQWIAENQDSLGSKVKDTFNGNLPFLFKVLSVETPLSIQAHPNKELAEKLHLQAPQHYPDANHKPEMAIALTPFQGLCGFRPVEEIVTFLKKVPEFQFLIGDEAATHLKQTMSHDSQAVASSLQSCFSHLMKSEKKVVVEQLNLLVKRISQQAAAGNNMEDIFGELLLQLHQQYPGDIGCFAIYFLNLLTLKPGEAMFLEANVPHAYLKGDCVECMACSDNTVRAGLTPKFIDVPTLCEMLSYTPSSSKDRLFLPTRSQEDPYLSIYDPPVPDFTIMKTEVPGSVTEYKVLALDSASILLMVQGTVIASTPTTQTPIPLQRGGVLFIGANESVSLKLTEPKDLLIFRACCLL
# [2] = loss of viability in HepG2 cells – cell-based, CellTiter-Glo, cherry-picked, cytotoxicity control for Shn3 inhibitor project, dose response (AID 624134); assay type: functional
# [3] = reduced cellular PGC1a acetyl-lysine signal – cell-based, cherry-picked samples, dose response (AID 720514); assay type: functional;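 note: potency may reflect raised or lowered acetylation signal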
# [4] = cytotoxicity toward MDA-MB-231 breast cancer cells – cell-based, CellTiter-Glo luminescence, cherry-pick, cytotoxicity control for RAD54 inhibitor project, dose response (AID 651692); assay type: functional
# [5] = reduction of Shn3 3'UTR-driven luciferase in osteoblasts – cell-based, Clone20 osteoblasts, firefly luciferase, cherry-picked, dose response (AID 624132); assay type: functional;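 note: firefly luciferase luminescence from reporter carrying the Shn3 3'UTR in osteoblasts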
# [6] = target: Delta-type opioid receptor (Homo sapiens, UniProt P41143); assay: Counterscreen for agonists of heterodimerization of the mu 1 (OPRM1) and delta 1 (OPRD1) opioid receptors: Luminescence-based cell-based high throughput dose response assay to identify agonists of OPRD1 homodimerization. [Related pubchem assays (depositor defined):AID504326, AID504355, AID504692, AID504904, AID504905]; assay type: functional
# [7] = target: Dual specificity protein phosphatase 3 (Homo sapiens, UniProt P51452); assay: VHR1 phosphatase inhibitors, biochemical (AID 1878)
# [8] = target: Dual specificity protein phosphatase 6 (Rattus norvegicus, UniProt Q64346); assay: inhibition of rat DUSP6 enzyme activity – biochemical, in vitro, primary screen (AID 425)
# Cysteine protease ATG4B = Cysteine protease ATG4B (Homo sapiens, UniProt Q9Y4P1); assay type: functional;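 note: Fluorescence-based dose-response confirmation assay measuring inhibition of ATG4B activity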
# [9] = blockers of bursicon-stimulated LGR2 cAMP reporter – cell-based, HEK293, CRE-luciferase reporter, cherry pick, set 2, dose response (AID 743343); assay type: functional;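 note: transfected cells were stimulated with diluted bursicon conditioned medium after compound addition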
# [10] = target: T2, Sentrin-specific protease 8 (Homo sapiens, UniProt Q96LD8); assay type: functional;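 note: luminescence read-out of SENP8 inhibition, dose-response confirmation following an ultra-high-throughput screen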
# T2 sequence (Q96LD8 whole entry): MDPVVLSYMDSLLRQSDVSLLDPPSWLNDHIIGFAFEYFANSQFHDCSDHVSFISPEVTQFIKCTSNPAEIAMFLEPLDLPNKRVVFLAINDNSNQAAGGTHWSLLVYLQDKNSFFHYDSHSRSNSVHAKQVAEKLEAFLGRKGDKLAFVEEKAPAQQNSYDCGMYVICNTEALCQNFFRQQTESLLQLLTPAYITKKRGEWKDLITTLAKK
# [11] = target: Homeodomain-interacting protein kinase 2 (Homo sapiens, UniProt Q9H2X6); assay type: functional;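 note: measured within a kinome-wide kinase profiling panel, HIPK2 being one panel member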
# [12] = target: Cyclin-dependent kinase 1 (Homo sapiens, UniProt P06493); assay type: functional;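 note: Kinome-wide panel profiling, with the target listed as panel member CDC2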
# [13] = target: Dual specificity tyrosine-phosphorylation-regulated kinase 1A (Homo sapiens, UniProt Q13627); assay type: functional;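 note: measured against DYRK1A as one member of a broad kinome profiling panel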
# [14] = target: RAC-gamma serine/threonine-protein kinase (Homo sapiens, UniProt Q9Y243); assay type: functional
# [15] = target: Serine/threonine-protein kinase pim-2 (Homo sapiens, UniProt Q9P1W9); assay type: functional;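 note: value comes from a broad kinase panel profiling study in which PIM2 was one of the panel members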
# [16] = target: Serine/threonine-protein kinase D2 (Homo sapiens, UniProt Q9BZL6); assay type: functional;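 note: measured against PRKD2 as one member of a kinome-wide kinase profiling panel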
# [17] = target: Interleukin-1 receptor-associated kinase 4 (Homo sapiens, UniProt Q9NWZ3); assay type: functional
# [18] = target: Serine/threonine-protein kinase PAK 4 (Homo sapiens, UniProt O96013); assay type: functional;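 note: value obtained within a kinome profiling panel in which PAK4 was one of the panel members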
# [19] = target: Casein kinase I isoform gamma-1 (Homo sapiens, UniProt Q9HCP0); assay type: functional;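 note: measured as the CSNK1G1 member of a kinome profiling panel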
# [20] = target: PAS domain-containing serine/threonine-protein kinase (Homo sapiens, UniProt Q96RG2); assay type: functional
# Ephrin type-A receptor 2 = Ephrin type-A receptor 2 (Homo sapiens, UniProt P29317); assay type: functional;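 note: EPHA2 tested as one member of a kinome-wide kinase panel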
# [21] = target: Serine/threonine-protein kinase pim-1 (Homo sapiens, UniProt P11309); assay type: functional
# [22] = target: Calcium/calmodulin-dependent protein kinase type 1 (Homo sapiens, UniProt Q14012); assay type: functional
# [23] = target: High affinity nerve growth factor receptor (Homo sapiens, UniProt P04629); assay type: functional;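 note: NTRK1 tested as one member of a kinome-wide profiling panel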
# [24] = target: cAMP-dependent protein kinase catalytic subunit alpha (Homo sapiens, UniProt P17612); assay type: functional
# [25] = target: Tyrosine-protein kinase ITK/TSK (Homo sapiens, UniProt Q08881); assay type: functional;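 note: affinity for ITK measured as one member of a broad kinase panel profiling binding across the kinome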
# [26] = target: Tyrosine-protein kinase Fyn (Homo sapiens, UniProt P06241); assay type: functional
# [27] = target: Death-associated protein kinase 3 (Homo sapiens, UniProt O43293); assay type: functional;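 note: measured as one member of a kinome-wide profiling panel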
# [28] = target: Cyclin-dependent kinase 2 (Homo sapiens, UniProt P24941); assay type: functional;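 note: CDK2 measured as one member of a broad kinome profiling panel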
# [29] = target: Protein kinase C gamma type (Homo sapiens, UniProt P05129); assay type: functional
# [30] = target: Ribosomal protein S6 kinase alpha-3 (Homo sapiens, UniProt P51812); assay type: functional;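 note: measured within a kinome-wide profiling panel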
# [31] = target: MAP kinase-activated protein kinase 5 (Homo sapiens, UniProt Q8IW41); assay type: functional;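 note: measured as one member of a kinome panel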
# [32] = target: Cyclin-dependent kinase 19 (Homo sapiens, UniProt Q9BWU1); assay: Navigating the Kinome. Panel member name: CDC2L6; assay type: functional
# [33] = target: Tyrosine-protein kinase Lyn (Homo sapiens, UniProt P07948); assay type: functional;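 note: lyn as one member of a kinase panel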
# [34] = target: Hepatocyte growth factor receptor (Homo sapiens, UniProt P08581); assay type: functional;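 note: kinase panel profiling across the kinome, with MET as the panel member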
# Chain of Serine/threonine-protein kinase pim-1 (P11309 whole entry): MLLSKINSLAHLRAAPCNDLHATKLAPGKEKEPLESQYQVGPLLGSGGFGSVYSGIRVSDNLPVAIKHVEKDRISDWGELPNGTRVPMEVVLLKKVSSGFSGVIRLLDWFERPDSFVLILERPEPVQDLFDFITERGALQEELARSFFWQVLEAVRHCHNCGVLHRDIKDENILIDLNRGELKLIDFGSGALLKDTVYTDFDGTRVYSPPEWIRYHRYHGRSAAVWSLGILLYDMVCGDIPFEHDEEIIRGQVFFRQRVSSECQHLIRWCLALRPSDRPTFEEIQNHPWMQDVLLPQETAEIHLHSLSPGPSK
# Chain of Ribosomal protein S6 kinase alpha-3 (P51812 whole entry): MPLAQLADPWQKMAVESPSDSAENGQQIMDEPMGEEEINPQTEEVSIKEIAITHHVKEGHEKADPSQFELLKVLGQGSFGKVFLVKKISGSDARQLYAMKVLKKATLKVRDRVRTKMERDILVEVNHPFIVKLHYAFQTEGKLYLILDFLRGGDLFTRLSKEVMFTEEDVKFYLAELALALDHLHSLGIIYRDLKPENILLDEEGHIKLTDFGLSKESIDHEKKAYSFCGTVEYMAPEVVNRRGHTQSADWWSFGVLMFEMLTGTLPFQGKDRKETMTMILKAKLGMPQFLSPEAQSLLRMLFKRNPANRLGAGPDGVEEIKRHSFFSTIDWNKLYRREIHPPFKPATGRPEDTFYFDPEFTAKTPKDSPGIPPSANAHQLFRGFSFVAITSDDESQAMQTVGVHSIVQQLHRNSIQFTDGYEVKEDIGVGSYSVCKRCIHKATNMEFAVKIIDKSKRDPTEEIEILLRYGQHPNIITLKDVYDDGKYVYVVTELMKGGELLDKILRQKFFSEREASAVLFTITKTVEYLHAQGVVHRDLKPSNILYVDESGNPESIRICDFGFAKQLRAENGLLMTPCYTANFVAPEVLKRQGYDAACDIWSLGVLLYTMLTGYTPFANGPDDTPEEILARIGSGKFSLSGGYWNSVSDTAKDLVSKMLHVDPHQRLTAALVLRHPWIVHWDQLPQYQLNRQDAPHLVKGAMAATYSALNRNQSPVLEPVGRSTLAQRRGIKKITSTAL
# Chain of Cyclin-dependent kinase 1 (P06493 whole entry): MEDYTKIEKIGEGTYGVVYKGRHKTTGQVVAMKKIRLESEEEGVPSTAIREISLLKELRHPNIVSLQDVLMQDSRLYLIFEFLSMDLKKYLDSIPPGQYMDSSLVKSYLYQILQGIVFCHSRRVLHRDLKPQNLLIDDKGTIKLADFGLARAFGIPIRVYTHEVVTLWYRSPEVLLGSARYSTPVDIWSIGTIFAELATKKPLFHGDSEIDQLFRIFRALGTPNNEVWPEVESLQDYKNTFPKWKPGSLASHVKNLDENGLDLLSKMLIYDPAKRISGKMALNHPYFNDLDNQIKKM
# Chain of RAC-gamma serine/threonine-protein kinase (Q9Y243 whole entry): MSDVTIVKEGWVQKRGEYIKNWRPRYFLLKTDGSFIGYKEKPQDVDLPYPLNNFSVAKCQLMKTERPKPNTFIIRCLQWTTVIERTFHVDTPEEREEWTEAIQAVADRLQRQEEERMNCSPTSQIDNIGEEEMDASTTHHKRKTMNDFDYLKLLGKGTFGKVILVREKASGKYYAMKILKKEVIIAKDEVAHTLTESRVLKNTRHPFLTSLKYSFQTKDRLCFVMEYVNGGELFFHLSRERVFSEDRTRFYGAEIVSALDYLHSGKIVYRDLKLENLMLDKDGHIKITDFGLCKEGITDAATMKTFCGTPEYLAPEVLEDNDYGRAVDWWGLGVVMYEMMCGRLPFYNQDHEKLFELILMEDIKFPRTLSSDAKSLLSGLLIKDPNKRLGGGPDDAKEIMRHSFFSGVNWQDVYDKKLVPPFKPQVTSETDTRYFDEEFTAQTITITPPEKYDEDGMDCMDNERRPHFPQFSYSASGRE
# Chain of Dual specificity protein phosphatase 3 (P51452 whole entry): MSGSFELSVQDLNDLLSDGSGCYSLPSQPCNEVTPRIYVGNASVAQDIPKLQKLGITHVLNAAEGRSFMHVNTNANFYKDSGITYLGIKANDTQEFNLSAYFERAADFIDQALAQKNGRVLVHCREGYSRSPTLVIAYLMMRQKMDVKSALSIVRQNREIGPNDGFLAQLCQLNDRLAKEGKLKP
# Chain of Homeodomain-interacting protein kinase 2 (Q9H2X6 whole entry): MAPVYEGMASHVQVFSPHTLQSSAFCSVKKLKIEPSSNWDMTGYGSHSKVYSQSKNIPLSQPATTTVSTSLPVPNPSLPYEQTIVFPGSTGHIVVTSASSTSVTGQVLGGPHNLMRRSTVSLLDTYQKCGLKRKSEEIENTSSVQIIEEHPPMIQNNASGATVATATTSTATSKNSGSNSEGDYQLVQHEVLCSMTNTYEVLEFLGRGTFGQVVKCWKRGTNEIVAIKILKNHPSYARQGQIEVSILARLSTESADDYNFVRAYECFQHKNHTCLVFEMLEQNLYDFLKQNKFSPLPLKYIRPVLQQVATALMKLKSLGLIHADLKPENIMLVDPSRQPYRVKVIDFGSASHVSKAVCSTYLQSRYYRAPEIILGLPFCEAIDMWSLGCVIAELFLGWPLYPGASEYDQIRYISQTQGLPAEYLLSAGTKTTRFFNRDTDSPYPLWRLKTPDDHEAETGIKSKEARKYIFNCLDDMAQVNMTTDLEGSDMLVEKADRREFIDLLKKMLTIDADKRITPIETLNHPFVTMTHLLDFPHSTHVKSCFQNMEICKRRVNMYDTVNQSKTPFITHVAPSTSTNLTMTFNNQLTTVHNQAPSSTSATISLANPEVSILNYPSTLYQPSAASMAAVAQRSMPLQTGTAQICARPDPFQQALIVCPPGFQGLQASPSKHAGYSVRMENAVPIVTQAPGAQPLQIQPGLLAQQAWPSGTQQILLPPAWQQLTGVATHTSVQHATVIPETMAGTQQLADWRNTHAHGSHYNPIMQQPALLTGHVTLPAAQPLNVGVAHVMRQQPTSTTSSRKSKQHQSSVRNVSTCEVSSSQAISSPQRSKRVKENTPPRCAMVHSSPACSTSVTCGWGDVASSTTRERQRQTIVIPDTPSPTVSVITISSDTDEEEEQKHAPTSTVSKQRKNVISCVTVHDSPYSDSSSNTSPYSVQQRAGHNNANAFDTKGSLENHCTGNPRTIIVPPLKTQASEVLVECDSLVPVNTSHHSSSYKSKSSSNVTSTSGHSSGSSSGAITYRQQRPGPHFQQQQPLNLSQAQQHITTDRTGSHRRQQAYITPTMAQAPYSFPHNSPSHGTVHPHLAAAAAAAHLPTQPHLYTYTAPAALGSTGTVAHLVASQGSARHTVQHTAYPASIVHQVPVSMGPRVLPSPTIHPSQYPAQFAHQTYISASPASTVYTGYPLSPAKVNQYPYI
# Chain of Death-associated protein kinase 3 (O43293 whole entry): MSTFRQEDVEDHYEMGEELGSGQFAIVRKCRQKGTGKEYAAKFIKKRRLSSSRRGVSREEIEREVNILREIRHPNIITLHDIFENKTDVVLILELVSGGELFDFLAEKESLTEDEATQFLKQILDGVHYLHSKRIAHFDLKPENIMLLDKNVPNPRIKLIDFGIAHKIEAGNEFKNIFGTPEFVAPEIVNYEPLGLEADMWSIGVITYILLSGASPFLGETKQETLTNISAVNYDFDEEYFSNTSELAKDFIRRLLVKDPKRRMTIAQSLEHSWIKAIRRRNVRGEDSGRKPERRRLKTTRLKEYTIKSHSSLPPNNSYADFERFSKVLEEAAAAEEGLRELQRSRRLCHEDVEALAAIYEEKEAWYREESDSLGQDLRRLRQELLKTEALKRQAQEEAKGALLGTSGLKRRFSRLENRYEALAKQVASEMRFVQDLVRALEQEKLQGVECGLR
# Chain of MAP kinase-activated protein kinase 5 (Q8IW41 whole entry): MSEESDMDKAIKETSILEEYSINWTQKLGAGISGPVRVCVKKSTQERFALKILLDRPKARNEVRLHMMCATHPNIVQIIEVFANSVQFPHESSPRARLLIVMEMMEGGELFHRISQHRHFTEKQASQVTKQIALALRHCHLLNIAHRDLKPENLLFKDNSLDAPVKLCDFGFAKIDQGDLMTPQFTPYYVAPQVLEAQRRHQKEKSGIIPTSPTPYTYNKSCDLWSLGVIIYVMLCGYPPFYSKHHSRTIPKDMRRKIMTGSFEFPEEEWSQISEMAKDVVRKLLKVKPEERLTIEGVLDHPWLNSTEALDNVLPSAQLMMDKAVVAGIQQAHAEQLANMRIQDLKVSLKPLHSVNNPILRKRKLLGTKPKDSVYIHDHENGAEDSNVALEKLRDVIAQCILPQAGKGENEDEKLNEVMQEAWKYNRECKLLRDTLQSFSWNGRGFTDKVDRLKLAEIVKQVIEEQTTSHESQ
smiles,measurement,setting,value
CCCc1nc2c(=O)n(C)c(=O)nc-2n(C)n1,IC50,[1],13.2 µM (active)
same,AC50,[2],4.96 µM (active)
same,AC50,[3],2.95 µM (active)
same,AC50,[4],2.71 µM (active)
same,AC50,[5],2.17 µM (active)
same,EC50,[6],> 92.5 µM (inactive)
same,IC50,[7],5.55 µM (active)
same,IC50,[8],< 1.23 µM (not active)
same,IC50,Cysteine protease ATG4B,2.84 µM (active)
same,AC50,[9],5.47 µM (active)
CC(=O)c1ccc(NC2=C(N3CCOCC3)C(=O)c3ccccc3C2=O)cc1,IC50,[10],18.8 µM (active)
COc1cc2ncn(-c3cc(OCc4ccccc4C(F)(F)F)c(C(N)=O)s3)c2cc1OC [GW843682X],Ki,[11],> 3.16 µM (inactive)
same,Ki,[12],> 7.94 µM (inactive)
same,Ki,[13],5.01 µM (active)
same,Ki,[14],> 10 µM (inactive)
same,Ki,[15],> 1.58 µM (inactive)
same,Ki,[16],> 10 µM (inactive)
same,Ki,[17],> 10 µM (inactive)
same,Ki,[18],> 5.01 µM (inactive)
same,Ki,[19],> 6.31 µM (inactive)
same,Ki,[20],> 1.58 µM (inactive)
same,Ki,Ephrin type-A receptor 2,> 3.16 µM (inactive)
same,Ki,[21],> 10 µM (inactive)
same,Ki,[22],> 7.94 µM (inactive)
same,Ki,[23],0.398 µM (active)
same,Ki,[24],> 7.94 µM (inactive)
same,Ki,[25],1 µM (active)
same,Ki,[26],> 0.794 µM (inactive)
same,Ki,[27],> 1.26 µM (inactive)
same,Ki,[28],> 7.94 µM (inactive)
same,Ki,[29],> 7.94 µM (inactive)
same,Ki,[30],7.94 µM (active)
same,Ki,[31],0.0631 µM (active)
same,Ki,[32],> 100 µM (inactive)
same,Ki,[33],> 1.58 µM (inactive)
same,Ki,[34],> 3.16 µM (inactive)
